Experimental data taken from ChEMBL document CHEMBL1201862, “PubChem BioAssay data set” (2004).
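Values below derive from 48-hour exposures of cells grown in 96-well plates, with endpoints linearly interpolated between the two concentrations bracketing the appropriate inhibition level. GI50: concentration for 50% inhibition of growth.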 Active and inactive are the calls of the source. Cut-off read from the data, not from the text of the source: active = GI50 up to about 1.1 µM and inactive = higher.

Tests used:
Test in all cases: growth of human tumour cells (NCI), 48 h
DLD-1 = tested on: DLD-1
DMS-114 = tested on: DMS-114
DMS-273 = tested on: DMS-273
HOP-18 = tested on: HOP-18
LXFL 529 = tested on: LXFL 529
M19-MEL = tested on: M19-MEL
RXF 631 = tested on: RXF 631
SNB-78 = tested on: SNB-78
XF498 = tested on: XF498

Measured: GI50

CCC1CN2CCc3cc(OC)c(OC)cc3C2CC1CC1c2cc(OC)c(OC)cc2CCN1C(=O)CNC(=O)OC(C)(C)C (configuration not stated)
inactive: DLD-1 4.67 µM | DMS-114 3.8 µM | DMS-273 12 µM | HOP-18 23.3 µM | LXFL 529 10.9 µM | M19-MEL 16.3 µM | RXF 631 30.3 µM | SNB-78 20.5 µM | XF498 7.53 µM

COc1ccc(COC2CC(OC)OC(C)C2OC(=O)c2ccccc2)cc1 (configuration not stated)
inactive: DLD-1 18.7 µM | DMS-114 26 µM | DMS-273 39.4 µM | HOP-18 > 100 µM | LXFL 529 26.5 µM | M19-MEL 34.5 µM | RXF 631 30.7 µM | SNB-78 41.7 µM | XF498 21.7 µM

O=C(c1ccccc1)n1cc(/C=C/[N+](=O)[O-])c2ccccc21
inactive: DLD-1 18.4 µM | DMS-114 21.8 µM | DMS-273 25.1 µM | HOP-18 > 100 µM | LXFL 529 18.5 µM | M19-MEL 20.8 µM | RXF 631 17.3 µM | SNB-78 30.9 µM | XF498 29.8 µM
